Data published in patent US11684675B2, “Dimeric collagen hybridizing peptides and methods of using” (University of Utah Research Foundation, priority 2015, dated 2023).

How the values were obtained:
[1] = CD refolding (triple helix assembly) at 10° C. monitored at 225 nm; format: physicochemical
Method: Conversion was assumed to be at 100% after 96 h incubation at 4° C., and max trimer concentration was measured via CD ellipticity at 10° C. Samples were preheated to 80° C. in the sample cuvette for 10 min before being transferred directly to the sample holder held at a constant 10° C. Sample measurement began immediately. Initial time point for analysis was determined by measuring time for a blank (lx PBS) to thermally equilibrate in these conditions.
For all peptides, conversion was assumed to be at 100% after 96 h incubation at 4° C., and max trimer concentration was measured via CD ellipticity at 10° C. Samples were preheated to 80° C. in the sample cuvette for 10 min before being transferred directly to the sample holder held at a constant 10° C. Sample measurement began immediately. Initial time point for analysis was determined by measuring time for a blank (1×PBS) to thermally equilibrate in these conditions. This was set as the zero point for all peptides, as the large jump in CD due to temperature makes the initial jump irresolvable. (A) Rate of assembly of CHP 9 (60, 30, and 15 μM), over 2 h, monitored at 225 nm. (B) Rate of assembly of CHP 9d (30, 15, and 7.5 μM, corresponding to same CHP strand concentration from panel A), over 2 h, monitored at 225 nm. (C) Rate of assembly of CHP 6 (150 and 75 μM), over 2 h, monitored at 225 nm.
FIGS. 12A and 12B show CD refolding at 10° C. of CMPs monitored at 225 nm. CMPs were heated to 80° C. for 5 minutes before being placed into the CD and initial 2 min of monitored data was removed to eliminate thermal transition. Signal was normalized to that of a fully folded peptide.
Circular Dichroism: Circular Dichroism (CD) was measured for all peptides at 225 nm. Melting curves were taken on peptides between 10 and 80° C. at a heating rate of 0.5° C./min, with pauses at each 1° C. Refolding experiments were performed after peptide solutions were incubated at 4° C. for at least 12 hours. Concentrations were normalized to strand concentration.

[2] = test system: crosslinked gelatin films; assay: Binding of CF-labelled CHPs to crosslinked gelatin films at 37° C. with and without preheating; design: species or system porcine; details: 20 μM, 37° C. overnight, PBS wash 20 h, FIG. 6C
Method: FIGS. 3A and 3B show the affinity of CHPs to gelatin films as monitored by fluorescence of conjugated CF fluorophore (492 ex, 533 em). (A) Fluorescence of CHPs bound to crosslinked gelatin after incubation at 37° C. overnight with no workup. (B) Fluorescence of CHPs remaining in crosslinked gelatin after incubation at 37° C. overnight without preheating, followed by washing with 1×PBS at 37° C. (20 h).
(§1) (A) Fraction of peptide remaining in a crosslinked gelatin film after 17 h at 25° C. (10 total washes). Values are normalized to fluorescence remaining in wells after 6 washes at 4° C. (>95% removal of CHPs 9r, 6r, and 5r). All washes performed in 1×PBS. (B) CHPs (15 μM) premixed into 10% porcine gelatin and preheated to 80° C. (10 min) before being added to a 96 well plate. Excess CHP-gelatin mixture was removed, then the premix was incubated at 4° C. for 2 hours. Wells were washed at 4° C., 5 times (>95% removal of CHPs 9r, 6r, and 5r). Wells were then washed for 2 hours (6 washes total) at 25° C. to monitor CHP remaining in the well. (C) Fluorescence of CHPs remaining in crosslinked gelatin after incubation at 37° C. overnight without preheating, followed by washing with 1×PBS at 37° C. (20 h). (D) Fluorescence of CHPs remaining in crosslinked gelatin after incubation at 37° C. overnight (80° C. preheating, 10 min), followed by washing with 1×PBS at 37° C. (20 h).
Dimeric CHPs were assessed for their ability to bind to collagen strands in crosslinked gelatin films. CHP solutions (20 μM in PBS) were added directly to the crosslinked gelatin films. For heated experiments, CHPs were preheated to 80° C. for 10 minutes before addition. Peptides were allowed to fully equilibrate with the gel at 37° C. overnight before being exposed to repeated washes (4×, PBS) at 37° C. to fully remove any non-specifically bound peptide and to determine binding level at body temperature. To measure retention, peptides were bound as previously described, but were subsequently washed with PBS 37° C. (5×1 h, 1×12 h) to measure retention within the gelatin films. […] Additionally, after a period of 20 hours, higher level of the dimeric CHP remained in the gelatin compared to the monomeric CHP.
A major limitation of the use of CHP in vivo, is the requirement of the triple helix to be fully disassembled before being injected. […] For this test, peptide solutions were allowed to warm to room temperature before being added (50 μL, 20 μM) to previously prepared crosslinked gelatin films. Solutions were then incubated at 37° C. overnight before removing the solution. Wells were washed at 37° C. with PBS (20 h) to determine binding. Preheated samples were prepared and incubated in the same way, but with preheating (80° C., 10 min) before being added to the crosslinked gelatin wells.

[3] = test system: crosslinked gelatin films; assay: Retention of CF-labelled CHPs in crosslinked gelatin films (bound at 4° C., washed at 25° C./r.t.); format: binding, porcine; details: Example 2, washes at 4° C. then 25° C.
Method: as §1
Binding to Gelatin films. Peptide solutions (20 μM in PBS) were preheated to 80° C. for 10 minutes before being added directly to the crosslinked gelatin films. Peptides were allowed to fully equilibrate with the gel at 4° C. overnight before being exposed to repeated washes (4×30 min) at 4° to fully remove any non-specifically bound peptide. Gelatin wells were then washed at r.t. with PBS (5×1 h, lx 12 h) to measure retention within the gelatin films. […] To eliminate the possibility of these peptides merely becoming physically entrapped within the gelatin after forming triple helix or forming triple helix before binding, binding affinity was verified by producing a premix of the CHPs and Gelatin to eliminated diffusion-limited binding before washing the wells in a similar manner.
Fluorescence Binding: CHP binding to gelatin was monitored by conjugating a fluorescent Carboxyfluorescein (CF) molecule to the N-terminus of each peptide via standard SPPS. Solutions of the fluorescent peptides were heated to 80° C. for 5 min before injecting 50 μL onto a pre-prepared EDC-crosslinked thin gelatin film in a 96 well plate. Peptides incubated overnight at 4° C., then washed with repeated rounds of 4° C. 1×PBS followed by 25° C. 1×PBS.

binding affinity to gelatin compared to monomeric form [3]: clear increase in binding affinity
Substance: [(GPO)6G3)2KG [6d]
refolding after two hours of incubation ([1]; 10° C., same strand concentration): almost completely refolded in two hours | time at which half refolded ([1]; CD refolding, 37.5 μM): 10 min | binding to gelatin wells at 37° C. without preheating [2]: bind more significantly than the GPO9 monomer without preheating
